This note sets out measurements from article PMC4489686 (Biochemistry, 2015).

The target of this test is StAhpC (Salmonella typhimurium AhpC; alkyl hydroperoxide reductase C component) (Salmonella enterica, UniProt P0A251). The experiment in a line: stopped-flow Trp fluorescence, double-exponential fit. In kind it is biochemical. Conditions: reduced enzyme, no reductase; pH 7.0, 25 °C; peroxidatic Cys46.

Molecules are shown by their SMILES.

Chain of StAhpC (Salmonella typhimurium AhpC; alkyl hydroperoxide reductase C component) (P0A251 2-187): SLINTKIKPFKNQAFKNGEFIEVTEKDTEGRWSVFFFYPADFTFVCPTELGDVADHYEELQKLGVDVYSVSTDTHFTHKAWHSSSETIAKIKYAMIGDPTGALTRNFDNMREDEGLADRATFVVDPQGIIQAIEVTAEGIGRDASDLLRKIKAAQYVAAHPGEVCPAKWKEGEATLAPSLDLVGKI

As to `CCOO` [ethyl hydroperoxide], the “slope of kobs vs [ROOH], first phase” value is “red those for ethyl hydroperoxide”. For `CC(C)(OO)c1ccccc1` [cumene hydroperoxide], the “slope of kobs vs [ROOH], first phase” value is recorded as “black those for cumene hydroperoxide”.
